Data on one molecule can be found in patent US9693942B2 (NESTEC S.A., priority 2012, dated 2017).

One test deals with B16 murine melanocytes. As to the kind of experiment: Production of melanin by B16 murine melanocyte cell line. Type of test: cell-based. The settings on record: kojic acid 400 μg/mL, 72 hours, B16 cells, total melanin (extracellular and intracellular), OD 405 nm. The method, then:
B16 cells were cultured in DMEM 1 g/L glucose without phenol red supplemented with 10% foetal calf serum, in a humidified chamber at 37° C. and containing 5% CO2. […] This was performed in the presence or absence of NDP-MSH, an analog of MSH (melanocyte-stimulating hormone). The total quantity of melanin (extracellular and intracellular) was evaluated by measuring the optical density at 405 nm of each sample against melanin standards in the presence or absence of NDP-MSH. The control condition corresponds to a culture of B16 murine melanocytes treated just with the medium, no other compound being added.

The next test relates to tyrosinase. As to the kind of experiment: Production of tyrosinase by B16 murine melanocyte cell line (immunolabeling). Type of test: cell-based. Conditions: kojic acid 400 μg/mL, 48 hours, B16 cells. How it is done: B16 cells were cultured in DMEM 1 g/L glucose without phenol red supplemented with 10% foetal calf serum, in a humidified chamber at 37° C. and containing 5% CO2. […] The production of tyrosinase was evaluated by immunolabeling. The control condition corresponds to a culture of B16 murine melanocytes treated just with the medium, no other compound being added.

As to `O=c1cc(CO)occ1O` [kojic acid], the “melanin production, percentage relative to the control” value in the test with B16 murine melanocytes came to 48%. Besides, the “production of tyrosinase relative to the control” value in the test on tyrosinase is “decreased”.
